Results taken from patent publication US20160279204A1, “PEPTIDES AND PHARMACEUTICAL COMPOSITIONS FOR USE IN THE TREATMENT BY NASAL ADMINISTRATION OF PATIENTS SUFFERING FROM ANXIETY AND SLEEP DISORDERS” (MAX-PLANCK-GESELLSCHAFT ZUR FÖRDERUNG DER WISSENSCHAFT E.V., priority 2011, published 2016).
Entries after “also recorded” stand apart in the source; their conditions may differ.

Key:
NPSR = conditions: cited from earlier work
[1] = tested on: CA3-CA1 synapses of the VH; test: Field potential recordings in VH slices after intranasal NPS; design: species or system mouse; conditions: for paired-pulse facilitation: interstimulus intervals 25, 50, 100, 200 ms
Description: Mice were then allowed to rest for 2 h before slice preparation and electrophysiological recording.
(§1) Brains were dissected and placed in ice-cold carbogenated ACSF. 350 μm horizontal slices containing the VH were prepared using a vibroslicer. Afterwards, the slices were incubated for 30 min at 34° C. and subsequently stored at room temperature. For experiments, slices were placed in a submerged recording chamber and continuously superfused with carbogenated ACSF at a flow rate of 3 mL/min. Square pulse electrical stimuli (50 μs pulse width) were delivered via a bipolar tungsten electrode (insulated to the tip, 50 μm pole diameter) that was positioned within the stratum radiatum of the CA1 region. All recordings were performed at room temperature, low-pass filtered at 1 kHz, and digitised at 5 kHz. Evoked field excitatory postsynaptic potentials (fEPSPs) were recorded using glass micro-electrodes (1 MΩ open-tip resistance), filled with ACSF and also positioned within the CA1 stratum radiatum. Stimulus intensities were adjusted in a manner to produce a fEPSP of ˜50% of that amplitude at which a population spike becomes clearly observable. Paired-pulse facilitation was measured at interstimulus intervals of 25, 50, 100, 200, and 400 ms and the paired-pulse ratio was calculated as fEPSP2 amplitude/fEPSP1 amplitude.

Bl6 and HAB mice [2] = test: Dark-light test after intranasal NPS; format: in vivo, mouse; conditions: for time spent in the light chamber / total distance traveled: intranasal, 4 hrs
Description: (§2) Behavioural tests (open field, dark-light test and elevated plus maze (EPM)) following intranasal NPS application were performed sequentially. Each test lasted for 5 min with an inter-test interval of 5 min, as described previously (Bunck et al., 2009; Krömer et al., 2005). The animals' behaviour during testing was videotaped and relevant parameters were analysed with the tracking software ANY-maze version 4.30 (Stoelting, Wood Dale, Ill., USA). Native NPS (1 μg/μL) or vehicle (Ringer solution) were administered intranasally to the alert mouse as described above (total volume: 14 μL). Mice were tested 30 min and 4 hrs after intranasal administration of first drop. Animals were sacrificed 24 hrs after treatment and prefrontal cortex and bilateral hippocampi were prepared immediately and shock-frozen in methylbutane.
(§3) After having ascertained that nasally administered NPS reaches its target cells, anxiolytic effects of NPS were established for this transnasal delivery method. For this purpose, nasally 6.36 nmol NPS per mouse was administered to two mouse strains, Bl6 and HAB (high anxiety behaviour) mice. HAB animals, a mouse strain inbred for pathologically high anxiety, were chosen together with Bl6 mice to allow differentiation between the temporary condition of state anxiety and the general condition of trait anxiety (Bunck et al., 2009; Kromer et al., 2005). To accurately characterise the anxiety-relieving properties of NPS in these two mouse strains, three standardised behavioural assays measuring anxiolytic effects at two different time points after intranasal NPS administration were performed. In each test, the effects of intranasal NPS versus vehicle treatment on both anxiety- and locomotion-related indices were examined.

Bl6 and HAB mice [3] = test: Elevated plus maze (EPM) after intranasal NPS; format: in vivo, mouse
Description: as §2, §3

[4] = tested on: CA3-CA1 synapses of the VH; test: Field potential recordings, bath application of NPS to VH slices; design: species or system mouse; conditions: bath application of NPS 1 μM, VH slices from C57BL/6N mice
Description: as §1

Bl6 and HAB mice [5] = test: Open field after intranasal NPS; format: in vivo, mouse
Description: as §2, §3

C57BL/6N mice [6] = test: Elevated plus maze after bilateral NPS injection into CA1 of the VH; format: in vivo, mouse; conditions: 0.1 nmol NPS each side into CA1 of VH, 30 min
Description: (§4) Animals were fixed in a stereotactic frame and maintained under isoflurane anesthesia (Forene® 100%, V/V; induction: 2.5%; maintenance: 1.5%; in O2; flow rate: 1 L/min). The mice received acute analgesic treatment with Metacam s.c. during surgery (0.5 mg/kg; in NaCl). 23 gauge stainless-steel guide cannulas were implanted in the CA1 region of the VH at the following coordinates: 3.1 mm posterior, ±3 mm lateral from bregma, and 2 mm ventral from the skull surface (Franklin and Paxinos, 2007). The guide cannulas were fixed with two screws and a two-component adhesive. For behavioural experiments, animals were implanted bilaterally for later bilateral injection, whereas for Cy3-NPS injections, implantation was performed unilaterally. The animals were allowed to recover for at least 6 days before starting the behavioural experiments. Substance infusions were carried out manually, on mice anesthetised by brief inhalation of isoflurane, using a 30 gauge injection cannula connected to a Tygon tube and a 10 μL Hamilton syringe. After infusion, the injection cannula was kept in place for additional 30 s to prevent substance outflow.
Mice were injected bilaterally either with 0.1 nmol NPS in 0.5 μL ACSF for each side or with 0.5 μL of ACSF for each side. 30 min after injection, three behavioural assays [open field, dark-light test, and elevated plus maze (EPM)] were performed sequentially in the order mentioned. Each test lasted 5 min, with a 5 min break in between, as described in Kromer et al., 2005 and Bunck et al., 2009. Animal behaviour was videotaped and relevant parameters were analysed using the tracking software ANY-maze version 4.30 (Stoelting, Wood Dale, Ill., USA). Mice were sacrificed 24 h after completion of behavioural assays and the locations of the guide cannulas were checked in histological cryosections of 40 μm counterstained with DAPI. Mice with deviating injection sites were excluded from further analysis.

C57BL/6N mice [7] = test: Dark-light test after bilateral NPS injection into CA1 of the VH; format: in vivo, mouse; conditions: 0.1 nmol NPS each side into CA1 of VH, 30 min
Description: as §4, with “After infusion, the injection cannula was kept in place for additional 30 s to prevent substance outflow.” left out
Mice were injected bilaterally either with 0.1 nmol NPS in 0.5 μL ACSF for each side or with 0.5 μL of ACSF for each side. […] Animal behaviour was videotaped and relevant parameters were analysed using the tracking software ANY-maze version 4.30 (Stoelting, Wood Dale, Ill., USA). […]

[8] = Bl6 and HAB mice, intranasal 6.36 nmol per mouse, 30 min

**Q.** What does the source list for “neuropeptide S (SFRNGVGSGVKKTSFRRAKQ; Neuropeptide S; UniProt P0C0P7 70-89, looked up) [NPS, peptide agonist of neuropeptide S receptor (NPSR); native NPS, rat, from Bachem]”?
**A.** response of NPSR-KO mice to NPS treatment (NPSR; NPSR-KO mice, Duangdao et al., 2009): resistant; anxiolytic effects (NPSR; rodents, intracerebral and ICV injection): strong anxiolytic effects; magnitude of LTP induced by high-frequency stimulation ([1]; C57BL/6N mice): weakened; also recorded: decreased the magnitude of LTP; input-output curve (fEPSP amplitudes) ([1]; C57BL/6N mice, approximately 3 h after treatment): shift of input-output curves towards bigger fEPSP amplitudes; also recorded: shift of the input-output curve towards bigger fEPSP amplitudes; paired-pulse facilitation ([1]; C57BL/6N mice): weakened; also recorded: reduced paired-pulse facilitation; input-output curve (fEPSP amplitudes) ([1]; HAB mice): increase; also recorded: shift of the input-output curve towards bigger fEPSP amplitudes; magnitude of LTP ([1]; HAB mice): reduction; also recorded: decreased the magnitude of LTP; paired-pulse facilitation ([1]; HAB mice): reduction; also recorded: reduced paired-pulse facilitation; behavioural differences versus vehicle in dark-light test (Bl6 and HAB mice [2]; [8]): no behavioural differences; time spent in the light chamber (Bl6 and HAB mice [2]; Bl6 mice): did not differ significantly; total distance traveled (Bl6 and HAB mice [2]; Bl6 mice): did not differ significantly; time spent in the light chamber (Bl6 and HAB mice [2]; HAB mice): significantly increased; total distance traveled (Bl6 and HAB mice [2]; HAB mice): unaffected; behavioural differences versus vehicle in EPM (Bl6 and HAB mice [3]; [8]): no behavioural differences; time on the open arms (Bl6 and HAB mice [3]; Bl6 mice, intranasal, 4 hrs): significantly increased; total number of entries (Bl6 and HAB mice [3]; Bl6 mice, intranasal, 4 hrs): no difference; any parameter tested in the EPM (Bl6 and HAB mice [3]; HAB mice, intranasal, 4 hrs): no differences; long-term potentiation (LTP) [4]: decreases; paired-pulse facilitation [4]: decreases; behavioural differences versus vehicle in open field (Bl6 and HAB mice [5]; [8]): no behavioural differences; any parameter examined in the open field (Bl6 and HAB mice [5]; Bl6 mice, intranasal, 4 hrs): no effect; any parameter tested in the open field (Bl6 and HAB mice [5]; HAB mice, intranasal, 4 hrs): no differences; anxiety-related behaviour on the EPM (C57BL/6N mice [6]): significant anxiolytic effect; also recorded: decreased anxiety-related behaviour; increase in the percentage of time spent on the open arms compared to vehicle-treated mice (C57BL/6N mice [6]): 28%; locomotion on the EPM (C57BL/6N mice [6]): did not affect locomotion; also recorded: without affecting locomotion; anxiety- and locomotion-related behaviour in the dark-light test (C57BL/6N mice [7]): did not affect locomotion; also recorded: not altered
